From patent US10072011B2, “Substituted bridged urea analogs as sirtuin modulators” (GlaxoSmithKline Intellectual Property (No.2) Limited, priority 2014, dated 2018)

Target: T1, SIRT1 (Homo sapiens, UniProt Q96EB6)
T1 sequence (Q96EB6 1-747): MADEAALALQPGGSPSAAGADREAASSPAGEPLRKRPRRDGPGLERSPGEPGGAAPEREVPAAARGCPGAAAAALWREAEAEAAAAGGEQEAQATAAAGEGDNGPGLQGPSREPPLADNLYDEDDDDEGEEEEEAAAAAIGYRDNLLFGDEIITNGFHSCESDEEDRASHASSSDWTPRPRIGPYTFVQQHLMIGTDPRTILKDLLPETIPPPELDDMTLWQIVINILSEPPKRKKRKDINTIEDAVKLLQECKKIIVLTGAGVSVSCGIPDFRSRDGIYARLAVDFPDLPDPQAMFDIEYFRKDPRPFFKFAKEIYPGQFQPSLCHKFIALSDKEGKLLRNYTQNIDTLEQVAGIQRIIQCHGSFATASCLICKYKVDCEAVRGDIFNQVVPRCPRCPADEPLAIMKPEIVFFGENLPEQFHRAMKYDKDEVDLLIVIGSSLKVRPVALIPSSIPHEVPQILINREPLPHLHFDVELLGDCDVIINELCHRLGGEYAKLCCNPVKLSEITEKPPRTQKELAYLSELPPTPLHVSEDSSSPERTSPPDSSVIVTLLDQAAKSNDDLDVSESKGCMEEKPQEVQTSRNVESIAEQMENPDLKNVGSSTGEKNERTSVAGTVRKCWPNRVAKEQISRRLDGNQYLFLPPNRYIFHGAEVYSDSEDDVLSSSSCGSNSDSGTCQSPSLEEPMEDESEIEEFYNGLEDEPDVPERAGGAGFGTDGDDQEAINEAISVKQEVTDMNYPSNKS
Assay: Trp mass spectrometry assay of SIRT1 activation (Ac-R-H-K-K(Ac)-W-NH2 peptide)
Type: biochemical
Settings: Trp peptide 0.5 μM, 120 μM βNAD+, 10 nM SIRT1, 25 min at 25° C.; for TRP MAX RESP (percent maximum fold activation) / Emax: relative to control (100%); for Emax: 25 min, read-out: TRP MAX RESP (percent maximum fold activation)
Description: The Trp mass spectrometry assay was conducted as follows. […] The SIRT1 protein was obtained by cloning the SirT1 gene into a T7-promoter containing vector, which was then expressed in BL21(DE3) bacterial cells and purified as described in further detail below. Test compound was added at varying concentrations to this reaction mixture and the resulting reactions were monitored. After the 25 minute incubation with SIRT1, 10 μL of 10% formic acid was added to stop the reaction. The resulting reactions were sealed and frozen for later mass spec analysis. The relative SIRT1 activity was then determined by measuring the amount of O-acetyl-ADP-ribose (OAADPR) formed (or, alternatively, the amount of deacetylated Trp peptide generated) by the NAD-dependent sirtuin deacetylation reaction in the presence of varying concentrations of the test compound versus control reactions lacking the test compound. The degree to which the test agent activated deacetylation by SIRT1 was expressed as EC1.5 (i.e., the concentration of compound required to increase SIRT1 activity by 50% over the control lacking test compound), and Percent Maximum Activation (i.e., the maximum activity relative to control (100%) obtained for the test compound).
This time point was the same as that used for test compounds and, within the linear range, the endpoint represents a change in velocity.
For the above assay, SIRT1 protein was expressed and purified as follows. The SirT1 gene was cloned into a T7-promoter containing vector and transformed into BL21(DE3). The protein was expressed by induction with 1 mM IPTG as an N-terminal His-tag fusion protein at 18° C. overnight and harvested at 30,000×g. Cells were lysed with lysozyme in lysis buffer (50 mM Tris-HCl, 2 mM Tris[2-carboxyethyl]phosphine (TCEP), 10 μM ZnCl2, 200 mM NaCl) and further treated with sonication for 10 min for complete lysis. The protein was purified over a Ni-NTA column (Amersham) and fractions containing pure protein were pooled, concentrated and run over a sizing column (Sephadex S200 26/60 global). The peak containing soluble protein was collected and run on an Ion-exchange column (MonoQ). Gradient elution (200 mM-500 mM NaCl) yielded pure protein. This protein was concentrated and dialyzed against dialysis buffer (20 mM Tris-HCl, 2 mM TCEP) overnight. The protein was aliquoted and frozen at −80° C. until further use.
“NT” means not tested; “ND” means not determinable.

Compound	TRP Activity (EC1.5, concentration of test compound that results in 150% activation of SIRT1)	TRP MAX RESP (percent maximum fold activation)	Emax [%]
O=C(NC(CCO)C(F)(F)F)c1ccc2c(n1)N(C(=O)Nc1ccccn1)[C@H]1CCN2C1 (single isomer, unassigned) [Example 248]	B (EC1.5 1-25 μM)	A (Fold activation≥150%)	–
NC(CNC(=O)c1ccc2c(n1)N(C(=O)Nc1ccccn1)[C@H]1CCN2C1)C(F)(F)F (single isomer, unassigned) [Example 249]	B (EC1.5 1-25 μM)	–	–
O=C(N[C@@H]1CC1(F)F)c1ccc2c(n1)N(C(=O)Nc1cnc(OC[C@H](O)CO)cn1)[C@H]1CCN2C1 (single isomer, unassigned) [Example 260]	B (EC1.5 1-25 μM)	–	> 150
O=C(NC1CC1(F)F)c1ccc2c(n1)N(C(=O)Nc1cc(OCCO)ccn1)[C@H]1CCN2C1 (single isomer, unassigned) [Example 262]	A (EC1.5<1 μM)	–	> 150
O=C(NC1CC1(F)F)c1ccc2c(n1)N(C(=O)Nc1cc(OCCO)ccn1)[C@H]1CCN2C1 (single isomer, unassigned) [Example 263]	B (EC1.5 1-25 μM)	A (Fold activation≥150%)	–
O=C(NC1CC1(F)F)c1ccc2c(n1)N(C(=O)Nc1cccnn1)[C@H]1CCN2C1 (single isomer, unassigned) [Example 270]	A (EC1.5<1 μM)	–	> 150
O=C(NC1CC1(F)F)c1ccc2c(n1)N(C(=O)Nc1cccnn1)[C@H]1CCN2C1 (single isomer, unassigned) [Example 271]	B (EC1.5 1-25 μM)	A (Fold activation≥150%)	–
O=C(NC1CC1(F)F)c1ccc2c(n1)N(C(=O)Nc1cnccn1)[C@H]1CCN2C1 (single isomer, unassigned) [Example 272]	A (EC1.5<1 μM)	–	> 150
O=C(NC1CC1(F)F)c1ccc2c(n1)N(C(=O)Nc1cnccn1)[C@H]1CCN2C1 (single isomer, unassigned) [Example 273]	B (EC1.5 1-25 μM)	A (Fold activation≥150%)	–
COc1ccnc(NC(=O)N2c3nc(C(=O)N[C@@H]4CC4(F)F)ccc3N3CC[C@H]2C3)c1 (single isomer, unassigned) [Example 274]	B (EC1.5 1-25 μM)	–	> 150
COc1cc(NC(=O)N2c3nc(C(=O)NC4CC4(F)F)ccc3N3CC[C@H]2C3)ncn1 (single isomer, unassigned) [Example 298]	B (EC1.5 1-25 μM)	–	< 150
C[C@@H](NC(=O)c1ccc2c(n1)N(C(=O)Nc1cc(CCC(O)CO)ccn1)[C@H]1CCN2C1)C(F)(F)F (single isomer, unassigned) [Example 302]	A (EC1.5<1 μM)	–	< 150
COc1cc(NC(=O)N2c3nc(C(=O)NC4CC4(F)F)ccc3N3CC[C@H]2C3)ncn1 (single isomer, unassigned) [Example 303]	A (EC1.5<1 μM)	B (Fold Activation<150%)	–
O=C(NC1CC1(F)F)c1ccc2c(n1)N(C(=O)Nc1cc(OC[C@H](O)CO)ccn1)[C@H]1CCN2C1 (single isomer, unassigned) [Example 306]	B (EC1.5 1-25 μM)	B (Fold Activation<150%)	–
NC(CNC(=O)c1ccc2c(n1)N(C(=O)Nc1cc(OC[C@H](O)CO)ccn1)[C@H]1CCN2C1)C(F)(F)F (single isomer, unassigned) [Example 317]	B (EC1.5 1-25 μM)	B (Fold Activation<150%)	–
CCC(NC(=O)c1ccc2c(n1)N(C(=O)Nc1ccccn1)[C@H]1CCN2C1)C(F)(F)F (stereo in doubt) [Example 61, (4S)—N5-(pyridin-2-yl)-N7-((S)-1,1,1-trifluorobutan-2-yl)-3,4-dihydro-1,4-methanopyrido[2,3-b][1,4]diazepine-5,7(2H)-dicarboxamide]	A (EC1.5<1 μM)	–	> 150
O=C(NCC(F)(F)F)c1ccc2c(n1)N(C(=O)Nc1ccccn1)[C@H]1CCN2C1 [Example 1]	A (EC1.5<1 μM)	–	> 150
O=C(NC1CC1)c1ccc2c(n1)N(C(=O)Nc1ccccn1)[C@H]1CCN2C1 [Example 2, (4S)—N7-cyclopropyl-N5-(pyridin-2-yl)-3,4-dihydro-1,4-methano pyrido[2,3-b][1,4]diazepine-5, 7(2H)-dicarboxamide]	A (EC1.5<1 μM)	–	> 150
O=C(c1ccc2c(n1)N(C(=O)Nc1ccccn1)[C@H]1CCN2C1)N1CCC(F)(F)C1 [Example 3, (4S)-7-(3,3-difluoropyrrolidine-1-carbonyl)-N-(pyridin-2-yl)-3,4-dihydro-1,4-methanopyrido[2,3-b] [1, 4] diazepine-5(2H)-carboxamide]	B (EC1.5 1-25 μM)	–	> 150
O=C(NC1CCOCC1)c1ccc2c(n1)N(C(=O)Nc1ccccn1)[C@H]1CCN2C1 [Example 4, (4S)—N-5-(pyridin-2-yl)-N-7-(tetrahydro-2H-pyran-4-yl)-3,4-dihydro-1,4-methanopyrido [2,3-b] [1, 4] diazepine-5, 7(2H)-dicarboxamide]	B (EC1.5 1-25 μM)	–	> 150
O=C(NC1CCCOC1)c1ccc2c(n1)N(C(=O)Nc1ccccn1)[C@H]1CCN2C1 (stereo partly drawn) [Example 5, (4S)—N-5-(pyridin-2-yl)-N-7-(tetrahydro-2H-pyran-3-yl)-3,4-dihydro-1,4-methanopyrido [2,3-b] [1, 4] diazepine-5, 7(2H)-dicarboxamide]	B (EC1.5 1-25 μM)	–	> 150
O=C(NC1CCOC1)c1ccc2c(n1)N(C(=O)Nc1ccccn1)[C@H]1CCN2C1 (stereo partly drawn) [Example 6, (4S)—N-5-(pyridin-2-yl)-N-7-(tetrahydrofuran-3-yl)-3,4-dihydro-1,4-methano pyrido [2,3-b] [1, 4] diazepine-5, 7(2H)-dicarboxamide]	B (EC1.5 1-25 μM)	–	> 150
O=C(NC1CCC1)c1ccc2c(n1)N(C(=O)Nc1ccccn1)[C@H]1CCN2C1 [Example 7, (4S)—N-7-cyclobutyl-N-5-(pyridin-2-yl)-3,4-dihydro-1,4-methanopyrido [2,3-b] [1, 4] diazepine-5, 7(2H)-dicarboxamide]	A (EC1.5<1 μM)	–	> 150
